Experimental data taken from publication PMC9474773, “PARP targeted Auger emitter therapy with [^125I]PARPi-01 for triple-negative breast cancer” (EJNMMI Research, 2022).
“Also recorded” adds a separate entry of the source.

Tests used:
[1] = test system: subcutaneous MDA-MB-231 models; experiment: Endogenous therapy study (CT-based tumour growth, survival, [18F]FDG PET); type: in vivo, NOD/SCID mice
Experimental: Female NOD/SCID mice at 5–6 weeks of age (Janvier, France) was used for developing subcutaneous TNBC tumour. Animals were housed in 20–24 °C in a 12 h day light cycle. For each mouse, 3 × 10^6 MDA-MB-231 cells were suspended in a 1:1 (volume) mixture of Culture media: Matrigel® matrix (Corning®, Product No: 356237). Mice were inoculated with this cell suspension (max 200 µl) subcutaneously in the right flank. Tumour growth was monitored daily using calliper measurements. Tumour volume was calculated daily according to the formula Tumourvolume=TumourLength×Tumourbreadth^2×0.52
Upon reaching of a tumour volume of 500 mm^3, animals were proceeded for experiments. For biodistribution study animals were administered with [^123I]PARPi-01 (n = 3). For therapy studies animals were randomized for control (n = 10) or [^125I]PARPi-01 administration (n = 10). Randomisation was done based on equivalent distribution of tumour volumes. In addition to the daily calliper measurements image analysis of CT based tumour volumes was blinded to avoid bias. Animals were sacrificed upon completion of biodistribution study or upon reaching a humane end point for the therapy study. Humane end point is determined as reaching of either of the following conditions: 15 mm tumour diameter, 1500 mm^3 tumour volume, or development of ulcers/ascites.
Mice were administered intravenously via lateral tail vain with Saline (0.9% NaCl) or [^125I]PARPi-01 (8.15 ± 2.9 MBq/dose) in four doses at 10-day intervals. The tumour volume was measured using [^18F]FDG based PET/CT (Trifoil, USA) once per week. [^18F]FDG (2.3 ± 0.4 MBq, AAA, Düsseldorf, Germany) was intraperitoneally administered and scanned 30 min later. Upon reaching 520 mm^3 tumour volume, one additional CT imaging per week (Trifoil, USA) apart from the PET/CT was performed for monitoring tumour growth.
After injection with [^18F]FDG, the mice were placed on the scanner bed and the CT scan was initiated. The exposure settings used were as follows: 130 uA, 75 kVp, 230 ms exposure time, and 360° rotation with 512 views; the duration of the CT scans was ~ 5 min. A dynamic 30 min PET scan was initiated at the end of the CT scan. […] During the scans, the isoflurane concentration was adapted to achieve a respiratory rate between 75–50 breaths per minute. Mice were maintained at 1% Isoflurane and heated at 37 °C from anaesthesia induction to the end of imaging. The CT images were reconstructed using a Feldkamp filtered back projection reconstruction process to a voxel size of 0.154 × 0.154 × 0.154 mm in a 592 × 592 × 560 matrix. Using vendor software, the CT values were converted into Hounsfield units (HU) using the following formula HU=1000×μt-μw÷μw where µw is the linear attenuation coefficient of the water and µt is the linear attenuation coefficient of the tissue. The PET data were reconstructed using a 3D ordered-subset expectation maximization (i.e., OSEM-3D with three iterations and eight subsets) with a maximum a posteriori probability algorithm (30 iterations) into a 240 × 240 × 192 image matrix (resulting in final voxel dimensions of 0.25 × 0.25 × 0.597 mm). PET normalization, CT attenuation correction, and CT scatter correction were applied to all PET reconstructions. The PET images were automatically aligned to the CT using a custom-made transformation in PMOD software package from a capillary phantom.
All statistical analyses were performed using the Graph-Pad Prism software (Version 9.1.1). Biodistribution data is expressed as mean ± standard deviation. Kaplan–Meier Survival curve was analysed using survival analysis (Log rank Mantel-Cox test). The data points of the normalized tumour volume as a function of the time of the groups (Control, ^125I-PARPi, Control—excluded ulcers, ^125I-PARPi—excluded ulcers) were subjected to nonlinear regression analysis using the exponential growth formula Y = Y0*exp(k*x) (Malthusian). Accordingly, the doubling time is equal to ln(2)/k. […]

[2] = test system: MDA-MB-231 tumour tissue, liver, thyroid; experiment: Apoptosis (TUNEL) staining of ex vivo tissue sections; type: in vivo, NOD/SCID mice
Experimental: Organs excised and retrieved from control (n = 3) and therapy mice (n = 3) were fixed with 4% PFA overnight at 4 °C. For cryopreservation, the organs were kept for 2–3 days at 4 °C in 30% sucrose Cryosections (6 µm) of excised and preserved organs were made using a cryostat (Leica, CM3050S). For TUNEL fluorescence quantification, therapy mice (n = 3) and control mice (n = 3) slices were stained simultaneously. The TUNEL staining kit (Roche # 11684795910) was used and protocol was followed as mentioned in the staining kit. Tissues were washed with PBS and permeabilised with 0.1 % Triton-X in 0.1 % […] on ice for 2 min. Following permeabilization, sections were incubated with TUNEL reaction mixture (Fluorescence labelled Terminal deoxynucleotidyl transferase enzyme dissolved in nucleotide buffer) for 1 h at 37 °C. After PBS wash, the cells were mounted with RotiMount® Vectashield containing DAPI and analysed using fluorescence microscopy (Zen Lite, Carl Zeiss). The images were processed and quantified using CellProfiler 3.0 software.

MCF-7 = experiment: Nuclear uptake, subcellular fractionation with gamma counter; type: cell-based; settings: 24 h, 1 MBq/10^6 cells
Experimental: (§1) Breast cancer cells were seeded (0.5 × 10^6) in a 12-well plate and treated with [^125I]PARPi-01 (1 MBq/10^6 cells) for 24 h. Subcellular fractionation was performed using a Subcellular Fractionation kit (ThermoFischer inc., #78840. Protein concertation was assessed using BCA assay. SDS-PAGE was performed using the fractions (30 µg/lane) and Any KD Mini-Protean TGX gels (90 V for 1.5 h). The separated proteins were transferred to PVDF membranes using a wet blotting (60 V, 2 h) technique. The blots were then blocked with 1% Milk/TBST and incubated with a primary antibody (anti-PARP1 (1:1000); Abcam ab227244; anti-GAPDH (1:4000); cell signalling 14C10, or anti-Histon H3 1:1000) Abcam ab1791). For the phosphorimager analysis, after blotting, the blots were sandwiched with a Fujifilm Imaging plate for Bioanalyzer (BAS-MS 2040), and incubated overnight, and the protein bound activity was imaged using a phosphorimager (Typhoon FLA 7000 version 1.2). To assess the tracer uptake, both fractions were measured using a gamma counter (Wizard^2, Perkin Elmer, USA).

MDA-MB-231 = experiment: as above; type: cell-based; settings: 24 h, 1 MBq/10^6 cells
Experimental: as §1

MDA-MB-468 = experiment: as above; type: cell-based; settings: 24 h, 1 MBq/10^6 cells
Experimental: as §1

MDA-MB-231 cells [3] = test system: MDA-MB-231 cells; set-up: method as in PMID 35008392; settings: cited from earlier work
MDA-MB-231 cells [4] = test system: MDA-MB-231 cells; set-up: method as in PMID 35008392; settings: cited from earlier work; remark: listed apart in the source

O=C(c1ccc([125I])cc1)N1CCN(C(=O)c2cc(Cc3n[nH]c(=O)c4ccccc34)ccc2F)CC1 [[^125I]PARPi-01]
radiotoxicity in liver and thyroid ([1]; 4 doses, 10 MBq/dose): No radiotoxicity was detected | tumour doubling time ([1]; CT-based, excluding animals sacrificed for ulcers/ascites, n = 5): 15.07 days | tumour doubling time ([1]; CT-image-based, 4 doses 10 days apart, all animals n = 10): 14.2 days | median survival ([1]; all animals n = 10, not significant vs control (P = 0.2505)): 36 days | median survival time ([1]; excluding animals sacrificed for ulcers/ascites): 38 | [18F]FDG PET SUV values and tumour metabolic volumes, therapy vs control ([1]; mouse, in vivo): did not show significant difference | apoptosis in liver or thyroid ([2]; therapy group): did not show any noticeable apoptosis; also recorded: no noticeable apoptosis | percentage of nuclei in tumour positive for apoptosis ([2]; therapy group n = 3, P < 0.05 vs control): 52.5 ± 19.0% | nuclear tracer localization, of total tracer (MCF-7): more than 40% | nuclear tracer localization, of total tracer (MDA-MB-231): > 75% | nuclear tracer localization, of total tracer (MDA-MB-468): > 75% | colony formation after treatment (MDA-MB-231 cells [3]): significant reduction in colony formation | level of apoptosis induction (MDA-MB-231 cells [4]): remained comparable low
